Calls of active or inactive are those of the source.
Experiments:
Cytochrome P450 2C9 = Cytochrome P450 2C9 (Homo sapiens, UniProt P11712)
Cytochrome P450 1A2 = target: T1, Cytochrome P450 1A2 (Homo sapiens, UniProt P05177);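 also: PubChem cytochrome P450 panel assay, CYP1A2 panel member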
T1 sequence (P05177 whole entry): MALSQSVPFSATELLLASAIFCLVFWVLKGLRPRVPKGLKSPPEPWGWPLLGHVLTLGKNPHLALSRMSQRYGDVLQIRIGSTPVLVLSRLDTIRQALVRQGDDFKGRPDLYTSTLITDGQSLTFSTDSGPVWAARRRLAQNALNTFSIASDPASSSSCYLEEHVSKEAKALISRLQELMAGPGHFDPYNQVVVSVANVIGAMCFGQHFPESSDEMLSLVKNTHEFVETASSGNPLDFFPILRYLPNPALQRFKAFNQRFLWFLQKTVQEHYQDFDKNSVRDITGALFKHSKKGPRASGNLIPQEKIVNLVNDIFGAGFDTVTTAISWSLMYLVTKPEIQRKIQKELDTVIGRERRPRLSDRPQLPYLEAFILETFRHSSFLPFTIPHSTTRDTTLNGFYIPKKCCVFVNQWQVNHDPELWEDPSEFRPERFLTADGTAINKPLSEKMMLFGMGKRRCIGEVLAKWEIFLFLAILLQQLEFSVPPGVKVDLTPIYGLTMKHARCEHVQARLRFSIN

[1] = NIH3T3 cell viability loss – ATP luminescence, mouse fibroblasts, counter-screen, dose response (AID 2010); assay type: functional, cell-based;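 also: cells exposed to compound for about 90 hours before reading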
[2] = Trypanosoma cruzi growth suppression in host cells – NIH3T3 host cells, beta-gal luminescence, confirmation (AID 2044); assay type: functional, cell-based;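 also: intracellular parasites grown in NIH/3T3 mouse fibroblasts as host cells; luminescent beta-galactosidase reporter signal from transgenic T. cruzi replicating inside host cells; inhibitors lower the luminescence signal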
Cytochrome P450 2C19 = Cytochrome P450 2C19 (Homo sapiens, UniProt P33261); assay: Cytochrome panel assay with activity outcomes. Panel member name: p450-cyp2c19 Compounds with AC50 equal or less than 10 uM are considered active; assay type: functional
Cytochrome P450 2C19, sequence (P33261 whole entry): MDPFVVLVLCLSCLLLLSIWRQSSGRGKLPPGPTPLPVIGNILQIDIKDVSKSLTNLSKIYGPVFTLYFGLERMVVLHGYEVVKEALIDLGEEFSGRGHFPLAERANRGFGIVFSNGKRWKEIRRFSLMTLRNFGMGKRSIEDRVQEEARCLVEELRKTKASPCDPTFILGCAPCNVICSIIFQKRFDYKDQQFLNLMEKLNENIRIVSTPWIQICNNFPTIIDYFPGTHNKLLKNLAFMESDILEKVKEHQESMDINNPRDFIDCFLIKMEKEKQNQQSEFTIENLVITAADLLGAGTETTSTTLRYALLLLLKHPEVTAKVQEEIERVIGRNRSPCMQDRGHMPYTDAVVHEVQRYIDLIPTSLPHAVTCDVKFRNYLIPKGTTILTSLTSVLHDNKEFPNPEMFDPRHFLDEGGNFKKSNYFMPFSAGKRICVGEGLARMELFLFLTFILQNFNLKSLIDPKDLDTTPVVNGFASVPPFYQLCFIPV

Cytochrome P450 3A4 = Cytochrome P450 3A4 (Homo sapiens, UniProt P08684);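 also: CYP3A4 tested as one member of a cytochrome P450 panel screen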
Cytochrome P450 3A4, sequence (P08684 whole entry): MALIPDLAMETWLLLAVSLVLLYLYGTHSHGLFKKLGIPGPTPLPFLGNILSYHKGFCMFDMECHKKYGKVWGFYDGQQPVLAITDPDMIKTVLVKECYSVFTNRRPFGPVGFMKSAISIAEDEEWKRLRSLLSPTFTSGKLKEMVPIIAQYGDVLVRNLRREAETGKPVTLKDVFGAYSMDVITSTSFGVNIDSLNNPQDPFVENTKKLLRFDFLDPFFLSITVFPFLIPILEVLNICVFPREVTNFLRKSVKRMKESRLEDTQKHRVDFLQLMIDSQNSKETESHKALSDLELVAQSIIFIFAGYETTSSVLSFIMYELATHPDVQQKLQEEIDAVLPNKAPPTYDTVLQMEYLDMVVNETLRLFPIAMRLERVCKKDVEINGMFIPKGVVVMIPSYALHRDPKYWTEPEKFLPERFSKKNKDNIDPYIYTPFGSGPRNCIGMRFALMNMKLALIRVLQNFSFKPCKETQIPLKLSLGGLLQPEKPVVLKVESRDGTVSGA

Cytochrome P450 2C9, sequence (P11712 whole entry): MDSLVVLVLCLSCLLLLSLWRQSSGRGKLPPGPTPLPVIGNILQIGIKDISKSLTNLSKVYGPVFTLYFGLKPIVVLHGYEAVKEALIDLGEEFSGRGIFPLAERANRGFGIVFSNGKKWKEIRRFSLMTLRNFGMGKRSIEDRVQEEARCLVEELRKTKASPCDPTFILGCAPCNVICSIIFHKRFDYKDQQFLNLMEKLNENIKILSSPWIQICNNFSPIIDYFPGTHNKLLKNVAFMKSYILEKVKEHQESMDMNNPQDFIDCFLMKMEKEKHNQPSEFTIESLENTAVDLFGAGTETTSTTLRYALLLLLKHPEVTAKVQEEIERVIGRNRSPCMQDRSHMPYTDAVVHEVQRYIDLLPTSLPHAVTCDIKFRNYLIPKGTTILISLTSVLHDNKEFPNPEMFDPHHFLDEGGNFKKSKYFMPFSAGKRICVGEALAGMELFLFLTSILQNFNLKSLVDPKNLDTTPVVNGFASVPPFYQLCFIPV

For `CCCN(C/C=C\I)[C@@H]1CCc2ccc(O)cc2C1`, the AC50 (Cytochrome P450 2C9) was 25.1 µM (inconclusive) and the AC50 (Cytochrome P450 1A2) was 25.1 µM (inconclusive).

For `CN1CCN(C(=O)COc2ccc(S(=O)(=O)N(C)Cc3ccccc3)cc2)CC1`, the EC50 [1] was > 60 µM (not active) and the EC50 [2] was 0.189 µM (active).

With `FC(F)(F)c1ccccc1-c1ccc2ncnc(NCc3cccs3)c2c1` the AC50 (Cytochrome P450 2C9) was 1 µM (inconclusive).

For `C=CC[C@@H]1C=C[C@@H](O/N=C\c2ccc(C(=O)N3[C@H](c4ccc(C)cc4)[C@@H](C)CC[C@H]3C(=O)OC)cc2)[C@@H](CO)O1`, the AC50 (Cytochrome P450 2C19; read-out: AC50) was 3.16 µM (inconclusive).

For `O=C(O)C1=CCCN(CCOC(c2ccc(C(F)(F)F)cc2)c2ccc(C(F)(F)F)cc2)C1`, the AC50 (Cytochrome P450 3A4) was 39.8 µM (inconclusive).

In the case of `CCOc1ncnc2c1oc1nc(CC(C)C)c3c(c12)CC(C)(C)OC3`, the AC50 (Cytochrome P450 2C19; read-out: AC50) is reported as 39.8 µM (inconclusive) and the AC50 (Cytochrome P450 1A2) is reported as 22.4 µM (inconclusive).

In the case of `CCC(=O)Nc1cccc(NC(=O)CSc2nnnn2Cc2ccccc2)c1`, the AC50 (Cytochrome P450 2C9) is reported as 5.01 µM (inconclusive) and the AC50 (Cytochrome P450 3A4) is reported as 3.55 µM (inconclusive).

With `CCOc1cc(/C=N/NC(=O)CNc2cccc(C)c2)ccc1OC(=O)c1ccccc1` the AC50 (Cytochrome P450 1A2) was 14.1 µM (inconclusive).

In the case of `O=C(/C=C\NCC(=O)c1ccccc1)c1ccccc1`, the AC50 (Cytochrome P450 2C9) is reported as 1.78 µM (inconclusive).

In the case of `O=C1OC(OC2CCCCC2)(c2ccccc2)c2ccccc21` (configuration not stated), the AC50 (Cytochrome P450 2C9) is reported as 15.8 µM (inconclusive) and the AC50 (Cytochrome P450 3A4) is reported as 15.8 µM (inconclusive).

For `O=C(O)c1ccccc1N[C@H](c1ccccc1)c1ccc2cccnc2c1O`, the AC50 (Cytochrome P450 2C9) was 5.01 µM (inconclusive) and the AC50 (Cytochrome P450 1A2) was 1.58 µM (inconclusive).

With `O=C(O)c1ccccc1-c1ccccc1C(=O)Nc1ccc2c(c1)Cc1ccccc1-2` the AC50 (Cytochrome P450 2C9) was 3.16 µM (inconclusive).

With `COCC1C2CC[C@H]3C(OCc4ccc(F)cc4C(F)(F)F)OC[C@]4(C)[C@H]3C2=C(CN4C(=O)OC(C)(C)C)[C@H](C)C1COC` (some centres not stated) the AC50 (Cytochrome P450 2C9) was 20 µM (inconclusive), the AC50 (Cytochrome P450 2C19; read-out: AC50) was 39.8 µM (inconclusive) and the AC50 (Cytochrome P450 1A2) was 31.6 µM (inconclusive).

In the case of `COc1ccccc1NC(=O)Cn1nnc(-c2ccccc2NC(=O)c2cc3ccccc3oc2=O)n1`, the AC50 (Cytochrome P450 2C9) is reported as 0.794 µM (inconclusive) and the AC50 (Cytochrome P450 1A2) is reported as 15.8 µM (inconclusive).

For `Nc1ccccc1/N=N\c1c(S(=O)(=O)O)cc2cc(S(=O)(=O)O)cc(O)c2c1O`, the AC50 (Cytochrome P450 1A2) was 6.31 µM (inconclusive).

For `COc1cccc2cc3c(=O)oc4ccccc4c3nc12`, the AC50 (Cytochrome P450 2C9) was 2.82 µM (inconclusive).

In the case of `Cc1cnc(CNc2ccnc(-c3ccoc3)n2)cn1`, the AC50 (Cytochrome P450 3A4) is reported as 25.1 µM (inconclusive).

With `O=C(Nc1cccc(-c2cn3cccnc3n2)c1)c1ccc(Br)o1` the EC50 [1] was > 60 µM (not active) and the EC50 [2] was 0.554 µM (active).

In the case of `CCOc1ccc(C(F)(F)F)cc1NC(=O)c1ccc(OC)c([N+](=O)[O-])c1`, the AC50 (Cytochrome P450 3A4) is reported as 22.4 µM (inconclusive) and the AC50 (Cytochrome P450 2C19; read-out: AC50) is reported as 0.282 µM (inconclusive).

For `COC(=O)[C@@]1(Cc2ccc(F)cc2)[C@H]2c3cc(C(=O)N4CCCC4)n(Cc4ccccc4)c3C[C@H]2CN1C(=O)c1ccccc1`, the AC50 (Cytochrome P450 2C19; read-out: AC50) was 31.6 µM (inconclusive) and the AC50 (Cytochrome P450 1A2) was 20 µM (inconclusive).

With `O=C(Nc1ccccc1)N1CC2(CCN(C(=O)c3ccncc3)CC2)C1` the AC50 (Cytochrome P450 3A4) was 25.1 µM (inconclusive) and the AC50 (Cytochrome P450 1A2) was 10 µM (inconclusive).

In the case of `COc1ccccc1/C=C/C(=O)NCC(=O)N/N=C/c1ccccc1[N+](=O)[O-]`, the EC50 [1] is reported as > 60 µM (not active) and the EC50 [2] is reported as 1.59 µM (active).

In the case of `O=c1cnc2cnc(Nc3ccccc3)nc2n1CCc1ccccc1`, the AC50 (Cytochrome P450 2C9) is reported as 0.251 µM (inconclusive).

With `Cc1cccc(C)c1NC(=O)C[S+]([O-])CC(=O)Nc1ccc(F)cc1F` (configuration not stated) the AC50 (Cytochrome P450 2C9) was 39.8 µM (inconclusive) and the AC50 (Cytochrome P450 3A4) was 14.1 µM (inconclusive).

For `Cc1cccc(C)c1NC(=O)COc1cccc(/C=N/NC(=O)C(=O)NCc2ccccc2)c1`, the AC50 (Cytochrome P450 2C19) was “inconclusive”.

With `O=c1c(-c2ccc(Cl)cc2)nc2cncnc2n1Cc1ccccc1Cl` the AC50 (Cytochrome P450 3A4) was 12.6 µM (inconclusive) and the AC50 (Cytochrome P450 1A2) was 1.26 µM (inconclusive).

With `O=[N+]([O-])c1ccc(S(=O)(=O)N2CCN(c3ccc(N4CCOCC4)nn3)CC2)cc1` the EC50 [1] was > 60 µM (not active) and the EC50 [2] was 1.12 µM (active).

With `O=C(CSc1nc2ccccc2o1)NC(=O)NCc1ccccc1` the AC50 (Cytochrome P450 3A4) was 22.4 µM (inconclusive).

With `CCOC(=O)Cn1cc(C(=O)c2ccccc2F)c2ccccc21` the AC50 (Cytochrome P450 3A4) was 35.5 µM (inconclusive).

For `COc1cc2nncc(SCc3ccc(Cl)c(Cl)c3)c2cc1OC`, the AC50 (Cytochrome P450 3A4) was 2 µM (inconclusive) and the AC50 (Cytochrome P450 1A2) was 0.794 µM (inconclusive).

With `O=C(Nc1cc(C(F)(F)F)ccc1-n1cncn1)c1ccc(-c2ccccc2)cc1` the EC50 [1] was > 60 µM (not active) and the EC50 [2] was 0.489 µM (active).

For `COc1ccccc1C(=O)Nn1c(C2CCC2)nc2ccccc2c1=O`, the EC50 [1] was > 30 µM (not active) and the EC50 [2] was 2.13 µM (active).

In the case of `Oc1ccc2c3c1O[C@H]1c4c(c5ccccc5n4Cc4ccccc4)C[C@]4(O)[C@H](C2)N(CC2CC2)CC[C@@]314`, the AC50 (Cytochrome P450 1A2) is reported as 31.6 µM (inconclusive).

In the case of `C[C@@H](C(=O)NCc1cccc2ccccc12)[C@H]1C[C@]1(C)[C@H](NC(=O)OCc1ccccc1)c1ccccc1`, the AC50 (Cytochrome P450 1A2) is reported as 25.1 µM (inconclusive).

With `NC(=O)Cn1nc([N+](=O)[O-])nc1Oc1ccc(Br)cc1` the EC50 [1] was > 60 µM (not active) and the EC50 [2] was 0.174 µM (active).

With `CCc1cc2cc(C)c(C)cc2nc1SCC(=O)NNC(=O)c1ccco1` the AC50 (Cytochrome P450 1A2) was 0.794 µM (inconclusive).

For `Clc1ccccc1OCCCCn1ccnc1`, the EC50 [1] was > 60 µM (not active) and the EC50 [2] was 2.05 µM (active).

With `Cn1cc(-c2nc3cnc(Oc4ccccc4)nc3n(CCC#N)c2=O)c2ccccc21` the AC50 (Cytochrome P450 3A4) was 7.94 µM (inconclusive) and the AC50 (Cytochrome P450 1A2) was 3.16 µM (inconclusive).

For `O=C(O)COc1ccc(-c2nccc(-c3cccs3)n2)cc1`, the AC50 (Cytochrome P450 2C19; read-out: AC50) was 31.6 µM (inconclusive) and the AC50 (Cytochrome P450 1A2) was 15.8 µM (inconclusive).

In the case of `CC1(C)Cc2ccccc2C(N/N=C/c2cccc(F)c2)=N1`, the AC50 (Cytochrome P450 2C19; read-out: AC50) is reported as 25.1 µM (inconclusive).

For `Cc1ccc(Nc2nc(-c3sc(NC(=O)c4cccc(Cl)c4)nc3C)cs2)cc1`, the AC50 (Cytochrome P450 3A4) was 11.2 µM (inconclusive) and the AC50 (Cytochrome P450 1A2) was 14.1 µM (inconclusive).

With `N#Cc1cc([N+](=O)[O-])ccc1Oc1cccc(/C=N/NC(=O)c2cccc(Cl)c2)c1` the EC50 [1] was > 60 µM (inconclusive) and the EC50 [2] was 0.531 µM (active).

In the case of `Cc1c(Br)c([N+](=O)[O-])nn1C(C)C(=O)Nc1nccs1` (configuration not stated), the AC50 (Cytochrome P450 1A2) is reported as 22.4 µM (inconclusive).

With `COCCNC(=O)c1onc(CSc2ccccc2F)c1C(=O)O` the AC50 (Cytochrome P450 3A4) was 35.5 µM (inconclusive) and the AC50 (Cytochrome P450 2C19; read-out: AC50) was 0.141 µM (inconclusive).

With `CC(C)C12CN3CC(C(C)C)(CN(C1)C3c1cccnc1)C2=O` (configuration not stated) the AC50 (Cytochrome P450 2C9) was 3.16 µM (inconclusive) and the AC50 (Cytochrome P450 1A2) was 25.1 µM (inconclusive).

For `COc1cc(/C=C(\C#N)c2nc3ccccc3[nH]2)ccc1Oc1ccc([N+](=O)[O-])cn1`, the EC50 [1] was > 30 µM (not active) and the EC50 [2] was 1.12 µM (active).

In the case of `N=C(N)SCc1ccc(Cl)cc1Cl.O=[N+]([O-])c1c(O)c(Cl)cc(Cl)c1Cl`, the AC50 (Cytochrome P450 2C9) is reported as 7.94 µM (inconclusive).

In the case of `COc1ccc(C2NC(=O)c3sc4nc(C)c(C(C)=O)c(-c5ccc(Cl)cc5)c4c3N2)cc1` (configuration not stated), the AC50 (Cytochrome P450 2C19; read-out: AC50) is reported as 2 µM (inconclusive).

In the case of `CCN1CCC[C@@H](OC(=O)C(c2ccccc2)c2ccccc2)C1` [PIPERIDOLATE], the AC50 (Cytochrome P450 1A2) is reported as 0.00126 µM (inconclusive).

In the case of `CCc1c(C)nc2c(-c3ccccc3)c(C)nn2c1Nc1ccc(NC(C)=O)cc1`, the EC50 [1] is reported as > 60 µM (not active) and the EC50 [2] is reported as 1.29 µM (active).

With `CC[n+]1ccccc1C=Cc1ccc(N(C)C)cc1` the EC50 [1] was > 60 µM (not active) and the EC50 [2] was 0.572 µM (active).
